# From patent US20160113931A1, “Method of treating and/or preventing neurodegenerative diseases” (University of Macau, priority 2014, published 2016)
# Entries after “also recorded” stand apart in the source; their conditions may differ.
# How the values were obtained:
# SH-SY5Y cells [1] = assay: Cytotoxicity of BHDPC in SH-SY5Y cells (MTT assay); assay type: cell-based, human; settings: BHDPC 3 to 30 μM, 24 h
# Procedure: The human neuroblastoma SH-SY5Y cells were purchased from America Tissue Type Collection. The cells were maintained in DMEM medium supplemented with 10% fetal bovine serum and penicillin/streptomycin (100 U/mL; 100 μg/mL) in a 37° C., 5% CO2 incubator. All experiments were carried out 48 hours after the cells were seeded.
# The percentage of surviving cells was estimated by determining the activity of mitochondrial dehydrogenases with 3(4,5-dimethylthiazol-2-yl)-2,5-diphenyltetrazolium bromide (MTT) assay. After drug treatment, cells were incubated at 37° C. for 4 h in 0.5 mg/mL MTT solution. The medium was then removed, and 100 μL of DMSO was added to each well to dissolve the violet formazan crystals. The absorbance of the samples was measured at a wavelength of 570 nm with 655 nm as a reference wavelength. All values were normalized to the control groups.
# To evaluate the cytotoxicity of BHDPC, SH-SY5Y cells were incubated with various concentrations of BHDPC for 24 h and the cell viability was determined using MTT assay.
# NIH mice = assay: Acute toxicity assay in NIH mice; assay type: in vivo; settings: maximum dose, observed 14 days
# Procedure: NIH mice, sex in half, for acute toxicity assay was supplied by Guangzhou Medicinal Experiment Animal Center and the animal qualification code was 44007200007090 and the certificate number was SCXK (Guangdong) 2013-0002. The animals were kept in the SPF-grade animal laboratory which was conformed to the SPF grade requirement of animal testing facility, where temperature was within the range of 22° C. (±2° C.) and the humidity was in the range of 30-70%. The diurnal lighting and darkness cycle was 12 hours. The air change per hour was in the range of 10-20 times. The approval no. of the SPF animal laboratory was SYXK (Guangdong) 2005-0062. The rat chow was the SPF-grade full pellet for mouse, which was bought from Guangdong Medicinal Laboratory Animal Center. The nutritional values and the sanitation condition were conformed to the SPF-grade requirement for animal testing. Antiseptic water were given ad libitum.
# NIH mice were randomly divided into 6 groups. Ten NIH mice, sex in half, were assigned to for each group. […]
# [2] = test system: PKA/CREB/Bcl2 signaling pathway; assay: Western blotting of phosphorylated PKA, phosphorylated CREB and Bcl2 in SH-SY5Y cells; assay type: cell-based, human
# Procedure: Cells were pre-treated with 30 μM BHDPC for 2 h.
# Cells were pre-treated with BHDPC (3, 10 and 30 μM) for 2 h and then were collected at 120 min. […] The expression ratios of phosphorylated PKA, phosphorylated CREB and Bcl2 proteins as detected by Western blotting with specific antibodies were shown in FIGS. 8B, 8C and 8D respectively.
# After treatment, SH-SY5Y cells were collected and washed three times with ice-cold PBS. Then the harvested cells were lysed on ice for 30 min in RIPA lysis buffer containing 1% PMSF and 1% Protease Inhibitor Cocktail and centrifuged at 12,500×g for 20 min at 4° C. The supernatant was collected and protein concentrations were determined using the BCA protein assay kit (Thermo Scientific Pierce). Aliquots of protein samples (30 μg) were boiled for 5 min at 95° C. and electrophoresed on SDS-PAGE (10% (w/v) polyacrylamide gel) and then transferred to a polyvinylidene difluoride (PVDF) membrane (Bio-Rad, Hercules, Calif.). Subsequently, the membrane was blocked with 5% (w/v) non-fat milk in PBST (PBS containing 0.1% Tween-20) for 2 h at room temperature. The blots were incubated overnight at 4° C. with primary antibodies. After washed with PBST for 20 min at room temperature, the membranes were further incubated with horseradish peroxidase-conjugated secondary antibodies for 2 h at room temperature. Finally, protein bands were visualized using an ECL plus Western blotting detection reagents (GE Healthcare, Piscataway, N.J., USA). The membranes were then scanned on a Bio-Rad ChemiDoc XRS Imaging System and the intensity of the protein bands were analyzed using the Bio-Rad Quantity One Software (4.5.2).
# To determine which survival signaling pathway is regulated by BHDPC, SH-SY5Y cells were pre-treated with 30 μM BHDPC for 2 h, and then the phosphorylation of PKA at […] were examined by Western blot analysis. […] The inventors also determined whether BHDPC affected the phosphorylation of CREB. […] Bcl2 is a well-known anti-apoptotic protein. The inventors determined whether BHDPC affected the expression of Bcl2.
# SH-SY5Y cells [3] = assay: Effect of PKA inhibitor H89 on BHDPC neuroprotection under MPP+ cytotoxicity; assay type: cell-based, human; settings: with H89
# From the text: To further confirm the involvement of PKA activation in the protective effects of BHDPC, H89, a PKA inhibitor was used to measure cell survival under MPP^+ cytotoxicity (FIG. 9).
# ROCK1 = ROCK1 (Homo sapiens, UniProt Q13464); assay: Kinase activity assay ROCK1; assay type: biochemical
# From the text: ROCK has two isoforms (ROCK1 and ROCK2) sharing the same downstream proteins. Bioassay and molecular docking are used to compare the characteristics of BHDPC on ROCK. […] Through molecular docking and molecular dynamics simulation, the interaction between the inhibitor and ROCK1 was shown in FIG. 17.
# Chain of ROCK1 (Q13464 whole entry, species assumed, canonical isoform): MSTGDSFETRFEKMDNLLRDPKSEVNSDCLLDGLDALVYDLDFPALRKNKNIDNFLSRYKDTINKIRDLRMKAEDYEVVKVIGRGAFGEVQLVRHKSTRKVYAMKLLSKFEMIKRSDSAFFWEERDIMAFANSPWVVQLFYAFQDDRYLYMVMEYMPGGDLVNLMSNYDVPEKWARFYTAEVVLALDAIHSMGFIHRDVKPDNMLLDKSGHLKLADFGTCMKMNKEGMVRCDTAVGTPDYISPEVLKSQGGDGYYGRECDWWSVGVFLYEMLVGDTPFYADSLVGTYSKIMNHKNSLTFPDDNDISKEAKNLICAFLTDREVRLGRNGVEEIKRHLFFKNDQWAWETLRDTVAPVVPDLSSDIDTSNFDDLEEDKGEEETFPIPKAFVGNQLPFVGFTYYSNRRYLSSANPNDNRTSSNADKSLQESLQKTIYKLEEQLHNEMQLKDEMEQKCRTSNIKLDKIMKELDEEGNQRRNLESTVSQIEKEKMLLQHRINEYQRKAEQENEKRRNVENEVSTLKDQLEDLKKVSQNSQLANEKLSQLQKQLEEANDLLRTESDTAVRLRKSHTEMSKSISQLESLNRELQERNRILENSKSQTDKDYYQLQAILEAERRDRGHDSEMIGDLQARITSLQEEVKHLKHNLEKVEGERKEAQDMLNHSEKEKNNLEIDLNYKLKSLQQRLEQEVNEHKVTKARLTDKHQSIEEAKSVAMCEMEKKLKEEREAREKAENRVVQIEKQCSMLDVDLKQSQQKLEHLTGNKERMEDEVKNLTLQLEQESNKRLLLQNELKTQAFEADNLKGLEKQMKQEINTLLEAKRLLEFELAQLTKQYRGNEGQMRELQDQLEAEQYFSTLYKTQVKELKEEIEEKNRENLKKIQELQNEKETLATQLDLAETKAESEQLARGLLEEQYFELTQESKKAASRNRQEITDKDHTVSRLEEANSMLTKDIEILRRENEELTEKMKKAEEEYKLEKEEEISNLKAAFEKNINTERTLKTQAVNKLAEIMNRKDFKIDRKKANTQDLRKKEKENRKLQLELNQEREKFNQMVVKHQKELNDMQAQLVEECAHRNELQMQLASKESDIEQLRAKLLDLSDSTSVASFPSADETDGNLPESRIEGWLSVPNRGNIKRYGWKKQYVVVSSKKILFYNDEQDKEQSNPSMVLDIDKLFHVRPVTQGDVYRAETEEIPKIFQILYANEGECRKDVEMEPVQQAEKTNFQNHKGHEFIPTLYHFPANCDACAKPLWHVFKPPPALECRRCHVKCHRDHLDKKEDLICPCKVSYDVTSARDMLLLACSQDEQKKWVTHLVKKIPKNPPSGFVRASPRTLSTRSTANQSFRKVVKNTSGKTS
smiles,measurement,setting,value
"COc1cc(C2C(C(=O)OCc3ccccc3)=C(C)Nc3nnnn32)ccc1O (stereo not shown) [BHDPC, benzyl 7-(4-hydroxy-3-methoxyphenyl)-5-methyl-4,7-dihydrotetrazolo[1,5-a]pyrimidine-6-carboxylate]","cytotoxicity (cell viability, MTT)",SH-SY5Y cells [1],did not cause any cytotoxicity
same,toxic effects,"NIH mice; 5 mg/kg, iv",no toxic effects were observed
same,toxic effects,"NIH mice; 10 mg/kg, oral gavage",no toxic effects were observed
same,"phosphorylation intensity of PKA, time course","[2]; 30 μM, 0 to 120 min, particularly at 90 and 120 min",gradually increased; also recorded: activated PKA signaling pathway
same,"expression of Bcl2, dose-dependent","[2]; 3, 10 and 30 μM, 2 h",up-regulated
same,"phosphorylation intensity of CREB, dose-dependent","[2]; 3, 10 and 30 μM, 2 h",increased
same,"phosphorylation intensity of PKA, dose-dependent","[2]; 3, 10 and 30 μM, 2 h",increased
same,neuroprotective effect of BHDPC in presence of PKA inhibitor H89,SH-SY5Y cells [3],abolished
same,affinity ROCK1 versus ROCK2,ROCK1; from IC50 values,better affinity for ROCK1 than ROCK2
same,IC50,ROCK1; kinase activity assay,13.7 µM
